Data as given in patent US20260334439A1, “BCAT2 INHIBITORS” (Agios Pharmaceuticals, Inc., priority 2023, published 2026).

Molecular target: T1, BCAT2 (Homo sapiens, UniProt O15382)
T1 sequence (O15382 28-392): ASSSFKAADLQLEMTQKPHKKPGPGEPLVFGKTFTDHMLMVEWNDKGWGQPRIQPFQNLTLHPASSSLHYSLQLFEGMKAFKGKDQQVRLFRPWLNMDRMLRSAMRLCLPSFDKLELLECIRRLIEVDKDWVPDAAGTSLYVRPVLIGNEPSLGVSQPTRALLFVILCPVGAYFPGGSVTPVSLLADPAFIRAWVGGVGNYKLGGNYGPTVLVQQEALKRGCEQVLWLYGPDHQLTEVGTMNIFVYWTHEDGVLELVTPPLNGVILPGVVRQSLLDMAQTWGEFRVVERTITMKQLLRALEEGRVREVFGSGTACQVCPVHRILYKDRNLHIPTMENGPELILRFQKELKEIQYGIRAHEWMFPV
Experiment: BCAT2 in vitro enzyme inhibition assay (hBCAT2, glutamate dehydrogenase/diaphorase/resazurin coupled fluorescence read)
Assay type: biochemical
Details: hBCAT2, 1 h preincubation at 25° C., one hour reaction; average where tested multiple times
Experimental: • 2×Buffer: 200 mM Tris pH 8.0, 300 mM NaCl, 0.1% BSA • 1.67×hBCAT2 Enzyme Mix: 0.33 μg/mL hBCAT2, 1× Buffer • 2.5×Substrate Mix: 460 µM L-leucine, 420 µM α-KetoGlutarate, 10 U/mL glutamate dehydrogenase, 10 mM NAD, […] diaphorase, […] Resazurin
BCAT2 enzyme stock solution was diluted to prepare a 1.67×hBCAT2 Enzyme Mix. 1 μL of test compound was first added to the reaction wells followed by 30 μL of 1.67×hBCAT2 Enzyme Mix and incubated at room temperature (25° C.) for one hour. Meanwhile the Substrate Mix was prepared. The reaction was initiated by the addition of 20 μL of the 2.5×Substrate Mix, bringing the final reaction mix of all components to 1×. Reactions were quenched after one hour by the addition of 25 μL of 6% SDS and reaction progress was measured via fluorescence read (Ex 540/Em 590).
Test compounds were prepared at 50×final concentration in DMSO, 1 to 3 dilutions were made for 10 points. The compounds were added to the assay as a 1 to 50 dilution (1 μL in 50 μL) to yield a top assay final concentration of 100 μM, decreasing 3-fold for 10 points. Each compound dilution series test also included an assay max (1 μL DMSO Added in lieu of compound, Full Reaction Components Included) and Min (1 μL DMSO Added in lieu of compound, 30 μl of 1.67×hBCAT2 Enzyme Mix replated by 30 μL of 1×Buffer). All tests were performed in technical duplicate.
Where a compound was tested multiple times, the average value of the tests is reported.

| Structure (SMILES) | IC50 |
| --- | --- |
| COc1ccnc(C(=O)N[C@H]2CCC[C@@H](n3c(-c4ccccc4F)nc4cnc(-c5nc[nH]n5)cc43)C2)c1 [Example 60, N-((1S,3R)-3-(2-(2-fluorophenyl)-6-(1H-1,2,4-triazol-3-yl)-1H-imidazo[4,5-c]pyridin-1-yl)cyclohexyl)-4-methoxypicolinamide] | < 100 nM |
| O=C(N[C@H]1CCC[C@@H](n2c(-c3ccccc3OC(F)F)nc3cnc(-c4nc[nH]n4)cc32)C1)c1cc(Cl)ccn1 [compound 52] | < 100 nM |
| CN1C[C@@H](NC(=O)c2cc(F)ccn2)C[C@@H](n2c(-c3ccccc3OCCO)nc3ccc(-c4ncccn4)cc32)C1 [Example 237, 4-fluoro-N-((3S,5R)-5-(2-(2-(2-hydroxyethoxy)phenyl)-6-(pyr-imidin-2-yl)-1H-benzo[d]imid-azol-1-yl)-1-methylpiperidin-3-yl)picolinamide] | > 1000 nM |
| CO[C@H]1C[C@H](NC(=O)c2cc(Cl)ccc2F)C[C@H](n2c(-c3ccccc3OCCO)nc3cnc(-c4ncco4)cc32)C1 [Example 124, 5-chloro-2-fluoro-N-((1R,3S,5S)-3-(2-(2-(2-hydroxyethoxy)phenyl)-6-(oxazol-2-yl)-1H-imidazo[4,5-c]pyridin-1-yl)-5-methoxycyclohexyl)benzamide] | < 100 nM |
| N#Cc1ccccc1-c1nc2cnc(-c3nc[nH]n3)cc2n1[C@@H]1CCC[C@H](N2COc3ccc(F)cc3C2=O)C1 [Example 210, 2-(1-((1R,3S)-3-(6-fluoro-4-oxo-2H-benzo[e][1,3]oxazin-3(4H)-yl)cyclohexyl)-6-(1H-1,2,4-triazol-3-yl)-1H-imidazo[4,5-c]pyridin-2-yl)benzonitrile] | < 100 nM |
| COc1ccc(Cl)cc1C(=O)N[C@H]1C[C@H](O)C[C@@H](n2c(CC(C)C)nc3cnc(-c4ncccn4)cc32)C1 [Example 111, 5-chloro-N-((1R,3S,5S)-3-hydroxy-5-(2-isobutyl-6-(pyrimidin-2-yl)-1H-imidazo[4,5-c]pyridin-1-yl)cyclohexyl)-2-methoxybenzamide] | < 100 nM |
| COc1ccc(F)cc1C(=O)N[C@H]1CCC[C@@H](n2c(-c3ccccc3F)nc3cnc(-c4nc[nH]n4)cc32)C1 [Example 8, 5-fluoro-N-((1S,3R)-3-(2-(2-fluorophenyl)-6-(1H-1,2,4-triazol-3-yl)-1H-imidazo[4,5-c]pyridin-1-yl)cyclohexyl)-2-methoxybenzamide] | < 100 nM |
| O=C(N[C@H]1CCC[C@@H](n2c(-c3ccccc3F)nc3cnc(N4CCCC4)cc32)C1)c1cc(Cl)ccn1 [Example 28, 4-chloro-N-((1S,3R)-3-(2-(2-fluorophenyl)-6-(pyrrolidin-1-yl)-1H-imidazo[4,5-c]pyridin-1-yl)cyclohexyl)picolinamide] | 100 to 500 nM |
| O=C(N[C@H]1CCC[C@@H](n2c(-c3ccccc3OCCO)nc3ccc(-c4nc[nH]n4)cc32)C1)c1cc(F)ccc1F [Example 228, 2,5-difluoro-N-((1S,3R)-3-(2-(2-(2-hydroxyethoxy)phenyl)-6-(1H-1,2,4-triazol-3-yl)-1H-benzo[d]imidazol-1-yl)cyclo-hexyl)benzamide] | < 100 nM |
| O=C(N[C@H]1CCC[C@@H](n2c(-c3ccccc3OCCO)nc3ccc(-c4nc[nH]n4)cc32)C1)c1cc(Cl)ccc1F [Example 229, 5-chloro-2-fluoro-N-((1S,3R)-3-(2-(2-(2-hydroxyethoxy)phenyl)-6-(1H-1,2,4-triazol-3-yl)-1H-benzo[d]imidazol-1-yl)cyclohex-yl)benzamide] | < 100 nM |
| CN1CC(NC(=O)c2cc(Cl)ccc2F)CC(n2c(-c3ncccc3F)nc3cnc(-c4nc[nH]n4)cc32)C1 (stereo not shown) [Example 147, 5-chloro-2-fluoro-N-(5-(2-(3-fluoropyridin-2-yl)-6-(1H-1,2,4-triazol-3-yl)-1H-imidazo[4,5-c]pyridin-1-yl)-1-methylpiperidin-3-yl)benzamide] | 100 to 500 nM |
| NCCOc1ccc(Cl)cc1C(=O)N[C@H]1CCC[C@@H](n2c(-c3ccccc3F)nc3cnc(-c4nc[nH]n4)cc32)C1 [Example 42, 2-(2-aminoethoxy)-5-chloro-N-((1S,3R)-3-(2-(2-fluorophenyl)-6-(1H-1,2,4-triazol-3-yl)-1H-imidazo[4,5-c]pyridin-1-yl)cyclohexyl)benzamide] | < 100 nM |
| CC(C)Cc1nc2cnc(-c3nc[nH]n3)cc2n1[C@@H]1CCC[C@H](NC(=O)c2cc(Cl)ccc2OC2CC2)C1 [Example 79, 5-chloro-2-cyclopropoxy-N-((1S,3R)-3-(2-isobutyl-6-(1H-1,2,4-triazol-3-yl)-1H-imidazo[4,5-c]pyridin-1-yl)cyclohexyl)benzamide] | < 100 nM |
| O=C(N[C@H]1CCC[C@@H](n2c(CCC3CCOC3)nc3cnc(-c4nc[nH]n4)cc32)C1)c1cc(Cl)ccn1 (stereo partly drawn) [Example 94, 4-chloro-N-((1S,3R)-3-(2-(2-(tetrahydrofuran-3-yl)ethyl)-6-(1H-1,2,4-triazol-3-yl)-1H-imidazo[4,5-c]pyridin-1-yl)cyclohexyl)picolinamide] | > 1000 nM |
| O=C(N[C@H]1CCC[C@@H](n2c(-c3ccccc3F)nc3cnc(-c4nc[nH]n4)cc32)C1)c1cc(Cl)ccc1OC(F)F [compound 50] | < 100 nM |
| CN1C[C@H](NC(=O)c2cc(F)ccc2F)C[C@H](n2c(-c3ccccc3OCCO)nc3cnc(-c4ncco4)cc32)C1 [Example 158, 2,5-difluoro-N-((3R,5S)-5-(2-(2-(2-hydroxyethoxy)phenyl)-6-(oxazol-2-yl)-1H-imidazo[4,5-c]pyridin-1-yl)-1-methylpiperidin-3-yl)benzamide] | < 100 nM |
| CC(C)(Cc1nc2cnc(-c3nc[nH]n3)cc2n1[C@@H]1CCC[C@H](NC(=O)c2cc(Cl)ccn2)C1)C(N)=O [Example 44, N-((1S,3R)-3-(2-(3-amino-2,2-dimethyl-3-oxopropyl)-6-(1H-1,2,4-triazol-3-yl)-1H-imidazo[4,5-c]pyridin-1-yl)cyclohexyl)-4-chloropicolinamide] | > 1000 nM |
| CC(C)Oc1ccc(Cl)cc1C(=O)N[C@H]1CCC[C@@H](n2c(-c3ncccc3OC(F)F)nc3cnc(-c4nc[nH]n4)cc32)C1 [compound 65] | < 100 nM |
| CN1C[C@H](NC(=O)c2cc(F)ccn2)C[C@H](n2c(-c3ccccc3OCCO)nc3ccc(-c4ncccn4)cc32)C1 [Example 236, 4-fluoro-N-((3R,5S)-5-(2-(2-(2-hydroxyethoxy)phenyl)-6-(pyr-imidin-2-yl)-1H-benzo[d]imid-azol-1-yl)-1-methylpiperidin-3-yl)picolinamide] | 100 to 500 nM |
| CO[C@H]1C[C@H](NC(=O)c2cc(F)ccn2)C[C@H](n2c(-c3ccccc3OCCO)nc3ccc(-c4ncco4)cc32)C1 [Example 223, 4-fluoro-N-((1R,3S,5S)-3-(2-(2-(2-hydroxyethoxy)phenyl)-6-(oxazol-2-yl)-1H-benzo[d]imid-azol-1-yl)-5-methoxycyclohex-yl)picolinamide] | 100 to 500 nM |
| CN1C[C@@H](NC(=O)c2cc(Cl)ccn2)C[C@@H](n2c(-c3ccccc3OCCO)nc3ccc(-c4ncccn4)cc32)C1 [Example 235, 4-chloro-N-((3S,5R)-5-(2-(2-(2-hydroxyethoxy)phenyl)-6-(pyr-imidin-2-yl)-1H-benzo[d]imid-azol-1-yl)-1-methylpiperidin-3-yl)picolinamide] | > 1000 nM |
| N#Cc1ccccc1-c1nc2cnc(-c3nc(C(F)(F)F)co3)cc2n1[C@@H]1CCC[C@H](NC(=O)c2cc(F)ccn2)C1 [Example 99, N-((1S,3R)-3-(2-(2-cyanophenyl)-6-(4-(trifluoromethyl)oxazol-2-yl)-1H-imidazo[4,5-c]pyridin-1-yl)cyclohexyl)-4-fluoropicolinamide] | < 100 nM |
| O=C(N[C@H]1CCC[C@@H](n2c(-c3ccccc3F)nc3cnc(-c4nc[nH]n4)cc32)C1)c1cc(Cl)cnn1 [Example 17, 5-chloro-N-((1S,3R)-3-(2-(2-fluorophenyl)-6-(1H-1,2,4-triazol-3-yl)-1H-imidazo[4,5-c]pyridin-1-yl)cyclohexyl)pyridazine-3-carboxamide] | < 100 nM |
| COc1ccc(Cl)cc1C(=O)N[C@H]1C[C@@H](n2c(-c3ccccc3F)nc3cnc(-c4nc[nH]n4)cc32)CN(C)C1 [Example 135, 5-chloro-N-((3S,5R)-5-(2-(2-fluorophenyl)-6-(1H-1,2,4-triazol-3-yl)-1H-imidazo[4,5-c]pyridin-1-yl)-1-methylpiperidin-3-yl)-2-methoxybenzamide] | 500 to 1000 nM |
| O=C(N[C@H]1CCC[C@@H](n2c(-c3ncccc3OC(F)F)nc3cnc(-c4nc[nH]n4)cc32)C1)c1cc(Cl)ccn1 [compound 62] | < 100 nM |
